Data taken from paper PMC10785662 (ACS Omega, 2023).

What was measured:
[1] = Pharmacokinetic assay in mice, plasma LC-MS/MS, two-compartment model; assay type: in vivo, mouse
[2] = system: KPC tumors; assay: In vivo tumor growth study, KPC tumors in athymic nude mice; design: species or system mouse; conditions: 20 mg/kg IV, mice with KPC tumors

COc1cccc2c1C(=O)c1c(O)c3c(c(O)c1C2=O)C[C@@](O)(C(=O)CO)C[C@@H]3O[C@H]1C[C@H](N)[C@H](O)[C@H](C)O1 [doxorubicin, Doxorubicin]
AUC ([1]; male, ICR, mouse, plasma, iv, 6 mg/kg): 260 ng·h/mL | T1/2β (terminal half-life) ([1]; mouse plasma, single IV dose 6.0 mg/kg doxorubicin-equivalent): 3.2 h | time to toxicity-related fatality [2]: ≤ 1 week | toxicity-related fatality [2]: toxicity-related fatality in all mice
